{"source": "patent US12729377B2", "about": "“RNAi agents and compositions for inhibiting expression of angiopoietin-like 3 (ANGPTL3), and methods of use” (Arrowhead Pharmaceuticals, Inc., priority 2017, dated 2026)", "key": {"ANGPTL3 protein": {"system": "ANGPTL3 protein", "test": "Example 9: serum ANGPTL3 protein by ELISA in cynomolgus monkeys", "format": "in vivo, cynomolgus macaque (Macaca fascicularis)", "conditions": "for Average ANGPTL3 Protein Normalized to Pre-Treatment: 2.0 mg/kg single SC injection day 1, cynos, n=3", "method": "(§1) Additional ANGPTL3 RNAi agents were evaluated in cynomolgus monkeys. On day 1, cynomolgus macaque (Macaca fascicularis) primates (also referred to herein as “cynos”) were administered a single subcutaneous injection of 0.3 mL/kg (approximately 2-3 mL volume, depending on animal mass) containing 2.0 mg/kg of an ANGPTL3 RNAi agent, which included either AD05488, AD05743, AD05775, or AD05841, each formulated in saline. […] ANGPTL3 RNAi agents AD05488, AD05743, and AD05775 included nucleotide sequences designed to target position 304 of the ANGPTL3 gene. ANGPTL3 RNAi agent AD05841 included nucleotide sequences designed to target position 1035 of the ANGPTL3 gene.\n(§2) Three (3) cynos in each group were tested (n=3). Blood samples were drawn and serum samples were analyzed on days −14 (predose), −7 (predose), 1 (pre-dose), 8, 15, 22, 29, and 35. Cynos were fasted overnight prior to each collection. ANGPTL3 protein levels in serum were measured by ELISA assay (R&D Systems), according to the manufacturer's recommendations. Triglycerides, total cholesterol, high-density lipoprotein (HDL), and low-density lipoprotein (LDL) in serum were measured on a Cobas® Integra 400 (Roche Diagnostics), according to the manufacturer's recommendations.\n(§3) The ANGPTL3 protein levels, triglyceride levels, total cholesterol levels, HDL levels, and LDL levels for each animal were normalized. For normalization, the level of ANGPTL3 protein, triglyceride, HDL, and total cholesterol, respectively, for each animal at a time point, was divided by the average pre-treatment level of expression in that animal (in this case at days −14, −7, and 1) to determine the ratio of expression “normalized to pre-treatment.”"}, "ANGPTL3 gene [1]": {"system": "ANGPTL3 gene", "test": "Example 9: serum total cholesterol in cynomolgus monkeys", "format": "in vivo, cynomolgus macaque (Macaca fascicularis)", "conditions": "2.0 mg/kg single SC injection day 1, cynos, n=3", "method": "as §1, §2, §3"}, "ANGPTL3 gene [2]": {"system": "ANGPTL3 gene", "test": "Example 14: RNAi agent and statin, serum total cholesterol in LDLR knockout mice", "format": "in vivo, LDLR KO mice", "source_text": "To evaluate the effect of co-administration of RNAi agents and statins in a disease model, LDLR KO mice were commercially obtained (The Jackson Laboratory). For three weeks prior to the onset of the study, forty-one (41) male 7 to 8 week old LDLR KO mice were placed on a high fat (“western”) diet (Teklad Custom Diets TD.88137), and remained on that diet throughout the duration of the study. Pre-dose serum samples were taken on study Day 1 after a four hour fast. The dosing regimen for the study is recited in the following Table 72:\n• Mice were treated at 40 mg/kg for the first 11 days, then switched to 20 mg/kg thereafter.\nThe vehicle used for the oral gavage in the study was a 1:1 mixture of Ora-Plus®: Ora-Sweet® solution, which were acquired commercially. For the preparation of the atorvastatin oral gavage administrations, the respective desired dose of atorvastatin was first dissolved in sterile water (0.3 mL water per 1 mL of desired formulation) and vortexed until smooth, followed by the addition of a mixture of 1:1 Ora-Plus®: Ora-Sweet® solution (0.7 mL vehicle per 1 mL of desired formulation) and vortexed. On day 1 and for each day thereafter an oral gavage dose was administered for each of the Groups except for Group 2. On Day 23, Groups 1, 2, 3, and 4 received a single subcutaneous administration of 2.5 mg/kg dose ([…] solution) of an ANGPTL3 RNAi agent in D5W (dextrose in 5% water), or vehicle control (D5W) with no RNAi agent.\nThe RNAi agent tested (AD05488) included a modified sequence and an N-acetyl-galactosamine-containing targeting ligand conjugated to the 5′ terminal end of the sense strand. (See Tables 3, 4, and 5 for modified sequences and targeting ligand structures). The injections were performed between the skin and muscle (i.e. subcutaneous injections) into the loose skin over the neck and shoulder area. Serum was collected on days 8, 15, 22 (pre-RNAi agent injection), 29, 36, 43, and 50. LDLR KO mice were fasted for four hours prior to each collection.\nANGPTL3 protein levels in serum were measured by ELISA assay (R&D Systems), according to the manufacturer's recommendations. Among other biomarkers, triglycerides, total cholesterol, and low-density lipoprotein (LDL) in serum were measured on a Cobas® Integra 400 (Roche Diagnostics), according to the manufacturer's recommendations.\nThe ANGPTL3 protein levels, triglyceride levels, total cholesterol levels, HDL levels, and LDL levels for each animal were normalized. For normalization, respective levels of ANGPTL3 protein, TG, total cholesterol, or LDL for each animal at a time point was divided by the pre-treatment level of expression in that animal (in this case pre-dose levels on Day 1) to determine the ratio of expression “normalized to pre-treatment.” Data from the study set forth in this Example are shown in the following Tables 73-76: […]"}}, "note": "In the oligonucleotide strings, read from the 5' end, every base follows the letter of its sugar. An asterisk marks phosphorothioate; unmarked linkages are phosphodiester. Other units and linkages are bracketed, terminal groups are in braces. A string of capitals states the bases alone. {NAG37} = tridentate N-acetyl-galactosamine targeting ligand, structure (NAG37)s; [invAb] = inverted abasic unit; m = 2'-O-methyl; f = 2'-fluoro"}
{"substance": "AD05488: RNAi agent duplex: antisense AM07235-AS, sense AM07234-SS (antisense mU*fA*mC*fUmGfAmUfCmAfAmAfUmAfUmGfUmUfGmAfG*mC; sense {NAG37}*[invAb]*mGmCmUmCmAmAmCmAfUfAfUmUmUmGmAmUmCmAmGmUmA*[invAb])", "values": [{"measurement": "Average ANGPTL3 Protein Normalized to Pre-Treatment", "setting": "ANGPTL3 protein; Day 8", "result": 0.232}, {"measurement": "Average ANGPTL3 Protein Normalized to Pre-Treatment", "setting": "ANGPTL3 protein; Day 15", "result": 0.240}, {"measurement": "Average ANGPTL3 Protein Normalized to Pre-Treatment", "setting": "ANGPTL3 protein; Day 22", "result": 0.239}, {"measurement": "Average ANGPTL3 Protein Normalized to Pre-Treatment", "setting": "ANGPTL3 protein; Day 29", "result": 0.258}, {"measurement": "Average ANGPTL3 Protein Normalized to Pre-Treatment", "setting": "ANGPTL3 protein; Day 35", "result": 0.332}, {"measurement": "reduction in ANGPTL3 protein compared to pre-treatment", "setting": "ANGPTL3 protein; each of the measured time points, single 2.0 mg/kg subcutaneous, cynomolgus monkeys", "result": "reduction"}, {"measurement": "Average Total Cholesterol Normalized to Pre-Treatment", "setting": "ANGPTL3 gene [1]; Day 8", "result": 0.823}, {"measurement": "Average Total Cholesterol Normalized to Pre-Treatment", "setting": "ANGPTL3 gene [1]; Day 15", "result": 0.744}, {"measurement": "Average Total Cholesterol Normalized to Pre-Treatment", "setting": "ANGPTL3 gene [1]; Day 22", "result": 0.709}, {"measurement": "Average Total Cholesterol Normalized to Pre-Treatment", "setting": "ANGPTL3 gene [1]; Day 29", "result": 0.687}, {"measurement": "Average Total Cholesterol Normalized to Pre-Treatment", "setting": "ANGPTL3 gene [1]; Day 35", "result": 0.659}, {"measurement": "Avg Total Chol normalized to pre-treatment", "setting": "ANGPTL3 gene [2]; Group 2: no gavage, 2.5 mg/kg AD05488 SC on day 23, Day 8 (pre-RNAi agent injection)", "result": 0.962}, {"measurement": "Avg Total Chol normalized to pre-treatment", "setting": "ANGPTL3 gene [2]; Group 2: no gavage, 2.5 mg/kg AD05488 SC on day 23, Day 15 (pre-RNAi agent injection)", "result": 1.122}, {"measurement": "Avg Total Chol normalized to pre-treatment", "setting": "ANGPTL3 gene [2]; Group 2: no gavage, 2.5 mg/kg AD05488 SC on day 23, Day 22 (pre-RNAi agent injection)", "result": 1.261}, {"measurement": "Avg Total Chol normalized to pre-treatment", "setting": "ANGPTL3 gene [2]; Group 2: no gavage, 2.5 mg/kg AD05488 SC on day 23, Day 29", "result": 0.645}, {"measurement": "Avg Total Chol normalized to pre-treatment", "setting": "ANGPTL3 gene [2]; Group 2: no gavage, 2.5 mg/kg AD05488 SC on day 23, Day 36", "result": 0.518}, {"measurement": "Avg Total Chol normalized to pre-treatment", "setting": "ANGPTL3 gene [2]; Group 2: no gavage, 2.5 mg/kg AD05488 SC on day 23, Day 43", "result": 0.512}, {"measurement": "Avg Total Chol normalized to pre-treatment", "setting": "ANGPTL3 gene [2]; Group 2: no gavage, 2.5 mg/kg AD05488 SC on day 23, Day 50", "result": 0.515}, {"measurement": "Avg Total Chol normalized to pre-treatment", "setting": "ANGPTL3 gene [2]; Group 3: 10 mg/kg daily oral gavage atorvastatin, 2.5 mg/kg AD05488 on day 23, Day 8 (pre-RNAi agent injection)", "result": 0.763}, {"measurement": "Avg Total Chol normalized to pre-treatment", "setting": "ANGPTL3 gene [2]; Group 3: 10 mg/kg daily oral gavage atorvastatin, 2.5 mg/kg AD05488 on day 23, Day 15 (pre-RNAi agent injection)", "result": 0.620}, {"measurement": "Avg Total Chol normalized to pre-treatment", "setting": "ANGPTL3 gene [2]; Group 3: 10 mg/kg daily oral gavage atorvastatin, 2.5 mg/kg AD05488 on day 23, Day 22 (pre-RNAi agent injection)", "result": 0.758}, {"measurement": "Avg Total Chol normalized to pre-treatment", "setting": "ANGPTL3 gene [2]; Group 3: 10 mg/kg daily oral gavage atorvastatin, 2.5 mg/kg AD05488 on day 23, Day 29", "result": 0.444}, {"measurement": "Avg Total Chol normalized to pre-treatment", "setting": "ANGPTL3 gene [2]; Group 3: 10 mg/kg daily oral gavage atorvastatin, 2.5 mg/kg AD05488 on day 23, Day 36", "result": 0.362}, {"measurement": "Avg Total Chol normalized to pre-treatment", "setting": "ANGPTL3 gene [2]; Group 3: 10 mg/kg daily oral gavage atorvastatin, 2.5 mg/kg AD05488 on day 23, Day 43", "result": 0.331}, {"measurement": "Avg Total Chol normalized to pre-treatment", "setting": "ANGPTL3 gene [2]; Group 3: 10 mg/kg daily oral gavage atorvastatin, 2.5 mg/kg AD05488 on day 23, Day 50", "result": 0.322}, {"measurement": "Avg Total Chol normalized to pre-treatment", "setting": "ANGPTL3 gene [2]; Group 4: 20 mg/kg* daily oral gavage atorvastatin (40 mg/kg first 11 days), 2.5 mg/kg AD05488 on day 23, Day 8 (pre-RNAi agent injection)", "result": 0.682}, {"measurement": "Avg Total Chol normalized to pre-treatment", "setting": "ANGPTL3 gene [2]; Group 4: 20 mg/kg* daily oral gavage atorvastatin (40 mg/kg first 11 days), 2.5 mg/kg AD05488 on day 23, Day 15 (pre-RNAi agent injection)", "result": 0.622}, {"measurement": "Avg Total Chol normalized to pre-treatment", "setting": "ANGPTL3 gene [2]; Group 4: 20 mg/kg* daily oral gavage atorvastatin (40 mg/kg first 11 days), 2.5 mg/kg AD05488 on day 23, Day 22 (pre-RNAi agent injection)", "result": 0.857}, {"measurement": "Avg Total Chol normalized to pre-treatment", "setting": "ANGPTL3 gene [2]; Group 4: 20 mg/kg* daily oral gavage atorvastatin (40 mg/kg first 11 days), 2.5 mg/kg AD05488 on day 23, Day 29", "result": 0.448}, {"measurement": "Avg Total Chol normalized to pre-treatment", "setting": "ANGPTL3 gene [2]; Group 4: 20 mg/kg* daily oral gavage atorvastatin (40 mg/kg first 11 days), 2.5 mg/kg AD05488 on day 23, Day 36", "result": 0.295}, {"measurement": "Avg Total Chol normalized to pre-treatment", "setting": "ANGPTL3 gene [2]; Group 4: 20 mg/kg* daily oral gavage atorvastatin (40 mg/kg first 11 days), 2.5 mg/kg AD05488 on day 23, Day 43", "result": 0.293}, {"measurement": "Avg Total Chol normalized to pre-treatment", "setting": "ANGPTL3 gene [2]; Group 4: 20 mg/kg* daily oral gavage atorvastatin (40 mg/kg first 11 days), 2.5 mg/kg AD05488 on day 23, Day 50", "result": 0.310}, {"measurement": "total reductions in total cholesterol", "setting": "ANGPTL3 gene [2]; co-administration of atorvastatin and RNAi agent (Groups 3 and 4), LDLR KO mice on high fat diet", "result": "~ 70%"}]}
